Laboratory results reported in EPA's ToxValDB 9.5 (doi:10.2903/j.efsa.2013.3253).
≈ marks a conversion by molar mass, not a printed value.

Experiments:
Daphnia magna = details: chronic/long-term; duration: 22 days; reproduction
Pimephales promelas = details: chronic/long-term; duration: 33 days; growth
Cyprinodon variegatus = details: acute; duration: 96 hours; mortality
Tagia sp. = details: acute; duration: 14 days; mortality
Apis mellifera = details: acute, duration: 48 hours, mortality
Rattus norvegicus = details: mortality
Canidae = details: chronic; duration: 1 years; oral; Dog Other; histopathology: nonneoplastic
Neomysis kadiakensis = details: acute; duration: 96 hours; mortality

With `COC(=O)CC(NC(=O)[C@@H](NC(=O)OC(C)C)C(C)C)c1ccc(Cl)cc1` (stereo partly specified) [Valifenalate] the NOEC (Daphnia magna) was 3.2 mg/L, the NOEC (Pimephales promelas) was 12 mg/L and the LC50 (Cyprinodon variegatus) was > 15 µg/mL. The LC50 (Tagia sp.) was > 1000 mg/kg, the LD50 (Apis mellifera; dermal) was > 100 µg/piece and the LD50 (Apis mellifera; oral, unspecified) was > 107 µg/piece. For the same molecule, the LD50 (Anas platyrhynchos; acute, oral, unspecified, mortality) was > 2250 mg/kg, the NOAEL (Anas platyrhynchos; reproductive, reproduction) was 167 mg/kg-day and the LC50 (Anas platyrhynchos; short-term, oral, feed, mortality) was > 2650 mg/kg-day. For the same molecule, the LD50 (Rattus norvegicus; acute, oral) was > 5000 mg/kg, the NOAEL (Rattus norvegicus; reproduction developmental) was 80 mg/kg-day and the NOAEL (Canidae) was 7 mg/kg-day. For the same molecule, the LC50 (Colinus virginianus; acute, oral, diet, mortality) was > 1510 mg/kg-day, the LD50 (Colinus virginianus; acute, oral, mortality) was > 2250 mg/kg and the NOAEL (Colinus virginianus; reproduction developmental, reproduction) was 104 mg/kg-day. It also gave an LC50 (Neomysis kadiakensis) of 2.8 µg/mL (≈ 7.02 µM).
